# Source: US20250041245A1, “ENDOXIFEN FOR TREATMENT OF CANCERS” (Atossa Therapeutics, Inc., priority 2021, published 2025)
# Values joined by “and” are separate entries in the source; they are usually repeats but may differ in a detail not shown here. Equal values may be shown once. “Also recorded” adds a separate entry of the source.
# Experiments:
# Assay type in all cases: cell-based, human
# Set-up in all cases: key to Personalization Category: Personalization categories range from High, Good, Moderate, Low, to None; Personalization categories range from High, Good, Moderate, Low, to None; Personalization categories range from High, Good, Moderate, Low, to None; Personalization categories range from High, Good, Moderate, Low, to None; Personalization categories range from High, Good, Moderate, Low, to None; key to Sensitivity Category: Sensitivity categories range from High, Good, Moderate, Low, to None; Sensitivity categories range from High, Good, Moderate, Low, to None; Sensitivity categories range from High, Good, Moderate, Low, to None; Sensitivity categories range from High, Good, Moderate, Low, to None; Sensitivity categories range from High, Good, Moderate, Low, to None; AUC: unit not given beside the values
# [1] = test system: patient-derived tumor organoids (PDTOs), rectal cancer; assay: Endoxifen screen in PDTOs: rectal cancer
# Description: (§1) This example describes screening endoxifen in patient-derived tumor organoids. Endoxifen was tested as a single agent on tumor organoids derived from patients diagnosed with various cancer types using a personalized cancer treatment screening assay (PARIS© Test, SEngine Precision Medicine). The screen utilized patient-derived tumor organoids (PDTOs) along with high-throughput drug screening and machine learning-guided data analysis to quantify the efficacy of endoxifen against samples derived from individual patients diagnosed with various cancer types. PDTOs are self-organizing, three-dimensional organoid structures that recapitulate structural, functional, and genomic aspects of in vivo organs. The PDTOs were grown in culture from patient tumor biopsy samples.
# (§2) Fresh patient biopsy samples received following surgery were cleaned and purified. Immune cells (e.g., lymphocytes, blood cells), cancer-associated fibroblasts, and other non-tumor cells were removed to establish pure PDTOs for endoxifen testing. The tumor organoids were grown and expanded by supplying organ- and patient-specific growth factors and nutrients. The PDTOs were treated with increasing concentrations of endoxifen ranging from about 30 nM to about 10 μM, and the drug response was measured using a luminescence readout. A lower luminescence was indicative of a stronger drug response.
# (§3) The results were analyzed using a “SEngine Precision Medicine” (SPM) scoring system to assess the sensitivity and personalization of each tumor organoid to endoxifen. The SPM score correlates with clinical outcomes, such that a higher SPM score for a specific PDTO-drug combination predicts a more favorable clinical outcome following treatment of the corresponding patient with the tested drug.
# (§4) This example describes testing endoxifen efficacy against 17 distinct cancer types in patient-derived tumor organoids (PDTOs). Screening of PDTOs was performed as described in EXAMPLE 1. For each PDTO sample, the drug response was measured using a luminescent readout over a range of endoxifen concentrations. The drug response was evaluated based on the area under the fitted dose response curve (AUC) and the SPM scoring system. AUC values were normalized for each PDTO. Briefly, data points at each drug concentration were first normalized to a negative control, then a dose response drug curve was approximated using a four-parameter logistic model fitted to the normalized data points. The area under the curve was calculated from the normalized curve. Normalization allowed for comparison of AUC values between patient samples. The SPM scores were based on machine learning models that incorporate values for how well the drug kill patient cells (sensitivity metric), the relative drug responses of a patient to all other patients in a sample database (personalization metric), and knowledge of clinical outcomes for patients that had been evaluated with the personalized cancer screening assay (PARIS® Test, SEngine Precision Medicine).
# (§5) The SPM scoring system evaluated whether a PDTO was unresponsive or responsive to endoxifen and the degree of drug response for PDTOs that were responsive to endoxifen. […] The sensitivity category was determined from the sensitivity metric and is a measure of overall cell death of a patient's cells in response to endoxifen at six concentrations. […]
# [2] = test system: patient-derived tumor organoids (PDTOs), gastric cancer; assay: Endoxifen screen in PDTOs: gastric cancer; conditions: each line one patient sample
# Description: as §1, §2, §3, §4
# The SPM scoring system evaluated whether a PDTO was unresponsive or responsive to endoxifen and the degree of drug response for PDTOs that were responsive to endoxifen. The SPM scoring system generated metrics an SPM score, predictive of clinical outcome, overall drug response (response category), drug sensitivity (sensitivity category), and drug personalization (personalization category). SPM scores ranged from 1-15, corresponding to the following drug response categories: no response (SPM 1-8), low response (SPM 9), moderate response (SPM 10-11), good response (SPM 12-13), and exceptional response (SPM 14-15). […] Moderate to good drug responses (SPM 10-13) may indicate that a drug has clinical relevance, possibly in combination with other drugs. The sensitivity category was determined from the sensitivity metric and is a measure of overall cell death of a patient's cells in response to endoxifen at six concentrations. […]
# [3] = test system: patient-derived tumor organoids (PDTOs), thyroid cancer; assay: Endoxifen screen in PDTOs: thyroid cancer
# Description: as §1, §2, §3, §4, §5
smiles,measurement,setting,value
"CC/C(=C(\c1ccc(O)cc1)c1ccc(OCCNC)cc1)c1ccccc1 [Endoxifen, 4-hydroxy-N-desmethyltamoxifen]",IC50,"[1]; Homo sapiens, Patient 19, four-parameter logistic fit",3.9 µM
same,Personalization Category,[1]; Patient 19,Low
same,Sensitivity Category,[1]; Patient 19,Low
same,AUC,"[1]; Patient 19, normalized area under fitted dose response curve",0.8614
same,SPM Score,"[1]; Patient 19, score range 1-15",9
same,Personalization Category,[2],None and Low and High
same,Response Category,[2],None (no response (SPM 1-8)); also recorded: Low (low response (SPM 9)); also recorded: Good (good response (SPM 12-13)); also recorded: Moderate (moderate response (SPM 10-11))
same,Sensitivity Category,[2],Low and Moderate
same,IC50,[2]; four-parameter logistic fit,6.55 µM and 6.73 µM and 2.45 µM and 4.14 µM and 2.89 µM and 4.86 µM
same,AUC,[2]; normalized area under fitted dose response curve,0.9503 and 0.8641 and 0.7529 and 0.8116 and 0.6723 and 0.8547
same,SPM Score,[2]; score range 1-15,5 and 9 and 12 and 11 and 13 and 10
same,IC50,"[3]; Homo sapiens, patient 4, four-parameter logistic fit",7.1 µM
same,Personalization Category,[3]; patient 4,None
same,Sensitivity Category,[3]; patient 4,None
same,AUC,"[3]; patient 4, normalized area under fitted dose response curve",0.9109
same,SPM Score,"[3]; patient 4, score range 1-15",1
